In patent US6943007B2, “Immuno-stimulating polysaccharide substance from Phellinus spp. strain and use thereof” (Korea Institute of Science and Technology, priority 1998, dated 2005):

How the values were obtained:
[1] = system: B16F10 cutaneous cancer cells; test: Viability of mice implanted peritoneally with B16F10 cells, immunochemotherapy co-administration (60 days); type: in vivo, mouse; settings: for body weight during the test: all test groups, alone or in combination, 60-day test; for Proportion (%): untreated = 100
Description: (§1) A homogeneous plantation test system of B16F10 cutaneous cancer cell was utilized for the measurement of the anticancer activity upon co-administration of the polysaccharide substance and adriamycin. The cutaneous cancer cells were implanted in the peritoneal cavity of mice. Adriamycin was peritoneally administrated to the mice for 12 days after tumor implantation while the polysaccharide substance was peritoneally administrated from a week before the implantation to 12 days after the implantation. For 60 days, the viability of the mice was recorded everyday. Adriamycin was used at such low amounts as not to damage the mice.
The cutaneous cancer cells were implanted in the peritoneal cavity of mice. […] For 60 days, the viability of the mice was recorded everyday.
The cutaneous cancer cells were implanted in the peritoneal cavity of mice. […] For 60 days, the viability of the mice was recorded everyday. Cisplastin was used at such low amounts as not to damage the mice.
as §1, with “5-fluoro uracil, as in the above experiments.” for “adriamycin.”, “5-fluoro uracil” for “Adriamycin”

[2] = system: NCl-H23 lung cancer cells; test: Human cancer cells implanted subcutaneously in nude mice; type: in vivo
Procedure: The activity of the polysaccharide substance against human cancer was assayed using NCl-H23, a lung cancer cell line. Nude mice were subcutaneously implanted with NCl-H23 lung cancer cells. The polysaccharide substance and adriamycin were peritoneally administrated to the nude mice for 12 days after cancer cell implantation. The size of a mass of the cancer cells was measured and the cancer cells were separated and weighed on the 19th day after cancer cell implantation. Because the nude mice were devoid of T-cells, their immunological competency was generally attributed to the activity of natural killer cells or macrophage cells. Therefore, the immunological enhancement obtained when administrating the polysaccharide substance was meditated through these two type cells.

[3] = system: B16F10 cutaneous cancer cells; test: Lung metastasis of B16F10 cells implanted in tail veins; type: in vivo, C57BL/6 mice; settings: 14th day
Description: In order to test the polysaccharide substance for the prevention of cancer metastasis, B16F10 cutaneous cancer cells were implanted in the tail veins of C57BL/6 mice. On the 14th day after implantation, the lungs were isolated from the mice to investigate whether or to what extent cancer metastasis occurred. Adriamycin was peritoneally administrated to the mice for 12 days after tumor implantation while the polysaccharide substance was peritoneally administrated from a week before the implantation to 12 days after the implantation.

[4] = system: B16F10 mouse cutaneous cancer cells; test: Direct cytotoxicity, sulforhodamin B method; type: cell-based; settings: 2nd day after treatment
[5] = system: NCl-H23 human lung cancer cells; test: Direct cytotoxicity, sulforhodamin B method; type: cell-based; settings: 2nd day after treatment
B-cells = test: B-cell antibody-forming cell method; type: cell-based, mice; settings: 10 μg/mL
Description: A better understanding of the present invention may be obtained through the following examples which are set forth to illustrate, but are not to be construed as the limit of the present invention. In the following examples, splenocytes taken from B6C3F mice were used for the measurement of the immuno-stimulating activity of the polysaccharide substances isolated from Phellinus linteus Yoo and other Phellinus spp. First, the splenocytes were immunized for 2 days by treatment with the substances and lipopolysaccharide as a positive control. The antibodies formed were measured by a spectrophotometer and considered as a standard for the immuno-stimulating activity. The effect of the polysaccharide substance on the proliferation of T-cells was measured by a mixed lymphocyte response technique. To detect the proliferation of lymphocytes, nuclear DNA which was newly synthesized in lymphocytes was measured by using ^3H-thymidine. In this example, B-cells were counted by use of an antibody-forming cell method and the proliferation of T-cells was measured by a mixed lymphocyte response technique. In addition, in order to detect the effect of the polysaccharide substance on the proliferation of lymphocytes, the nuclear DNA which was newly synthesized was measured by using ^3H-thymidine.

COc1cccc2c1C(=O)c1c(O)c3c(c(O)c1C2=O)C[C@@](O)(C(=O)CO)C[C@@H]3O[C@H]1C[C@H](N)[C@H](O)[C@H](C)O1 [Adriamycin, adriamycin]
Nos. of viable mice on the 60th day ([1]; Am 0.1 mg/kg): 0/10 | Nos. of viable mice on the 60th day ([1]; Am 0.3 mg/kg): 2/10 | body weight during the test [1]: did not lose body weight | Cell size ([2]; 14th day, Am 1 mg/kg peritoneally for 12 days after implantation): Am^2 (1 mg/kg) 12 mm^3 | Final Cancer Weight ([2]; 19th day after implantation, Adriamycin 1 mg/kg): 95 | body weight of tested mice ([2]; nude mice, all test groups): did not gain or lose body weight | Nos. of Spots (cancer spots on the lungs) ([3]; Adriamycin 1 mg/kg peritoneally for 12 days): 197 | Nos. of Spots (cancer spots on the lungs) ([3]; Adriamycin 3 mg/kg): 172 | cell quantity (untreated = 100%) ([4]; 1 μg/mL): 29% | cell quantity (untreated = 100%) ([4]; 3 μg/mL): 9% | cell quantity (untreated = 100%) ([4]; 10 μg/ml): −10% | cell quantity (untreated = 100%) ([4]; 30 μg/mL): −10% | cell quantity (untreated = 100%) ([5]; 1 μg/mL): 71% | cell quantity (untreated = 100%) ([5]; 3 μg/mL): 39% | cell quantity (untreated = 100%) ([5]; 10 μg/ml): 7% | cell quantity (untreated = 100%) ([5]; 30 μg/mL): −1%

CO[C@@]12[C@H](COC(N)=O)C3=C(C(=O)C(C)=C(N)C3=O)N1C[C@@H]1N[C@@H]12 [M.C, Mitomycin C]
Nos. of viable mice on the 60th day ([1]; M.C 0.2 mg/kg): 0/10 | Avg. Viability ([1]; M.C 0.2 mg/kg peritoneally for 12 days after implantation): 32.5 days | Proportion (%) ([1]; M.C 0.2 mg/kg): 179.6% | Avg. Viability ([1]; M.C 0.6 mg/kg): 38.0 days | Nos. of viable mice on the 60th day ([1]; M.C 0.6 mg/kg): 1/10 | Proportion (%) ([1]; M.C 0.6 mg/kg): 209.9%

O=c1[nH]cc(F)c(=O)[nH]1 [5-FU, 5-fluoro uracil]
Nos. of viable mice on the 60th day ([1]; 5-FU 1 mg/kg): 0/10 | Avg. Viability ([1]; 5-FU 1 mg/kg peritoneally for 12 days after implantation): 33.0 days | Nos. of viable mice on the 60th day ([1]; 5-FU 3 mg/kg): 2/10 | body weight during the test [1]: did not lose body weight

N.N.[Cl][Pt][Cl] [C.P, Cisplatin]
Nos. of viable mice on the 60th day ([1]; C.P 0.5 mg/kg): 0/10 | Avg. Viability ([1]; C.P 0.5 mg/kg peritoneally for 12 days after implantation): 33.0 days | Avg. Viability ([1]; C.P 0.5 mg/kg peritoneally for 12 days after implantation, listed as Cisplatin): 33 days | Nos. of viable mice on the 60th day ([1]; C.P 1.5 mg/kg): 2/10

lipopolysaccharide [LPS]
B-Cell Antibody-forming (B-cells): 0.81 ± 0.23 Abs 576 nm
